Earlier results as cited in US9346789B2, “Combinations of AKT inhibitor compounds and abiraterone, and methods of use” (Genentech, Inc., priority 2011, dated 2016).

Target: T1, topoisomerase I (Homo sapiens, UniProt P11387)
T1 sequence (P11387 1-765): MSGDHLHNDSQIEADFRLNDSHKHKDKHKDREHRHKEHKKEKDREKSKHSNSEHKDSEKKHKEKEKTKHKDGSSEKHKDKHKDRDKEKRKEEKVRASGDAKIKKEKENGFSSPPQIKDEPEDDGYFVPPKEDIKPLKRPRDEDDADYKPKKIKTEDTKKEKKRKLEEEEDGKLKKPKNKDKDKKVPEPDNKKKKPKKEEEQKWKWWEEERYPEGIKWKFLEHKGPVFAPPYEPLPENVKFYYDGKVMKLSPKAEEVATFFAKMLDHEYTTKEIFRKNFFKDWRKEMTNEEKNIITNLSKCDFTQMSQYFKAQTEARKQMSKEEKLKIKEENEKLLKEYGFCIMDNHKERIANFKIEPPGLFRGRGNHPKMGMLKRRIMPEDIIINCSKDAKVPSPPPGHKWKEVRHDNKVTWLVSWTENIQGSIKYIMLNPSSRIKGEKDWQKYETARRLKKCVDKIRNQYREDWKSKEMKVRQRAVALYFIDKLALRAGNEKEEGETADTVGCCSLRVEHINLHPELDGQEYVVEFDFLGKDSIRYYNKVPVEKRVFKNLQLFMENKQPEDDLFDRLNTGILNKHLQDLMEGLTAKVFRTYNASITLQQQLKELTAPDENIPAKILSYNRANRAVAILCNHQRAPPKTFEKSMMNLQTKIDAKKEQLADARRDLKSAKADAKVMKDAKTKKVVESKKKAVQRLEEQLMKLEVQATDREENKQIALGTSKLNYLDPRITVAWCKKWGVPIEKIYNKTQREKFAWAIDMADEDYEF
Conditions: active metabolite versus irinotecan itself

In the case of CCc1c2c(nc3ccc(O)cc13)-c1cc3c(c(=O)n1C2)COC(=O)[C@]3(O)CC [SN-38, 7-ethyl-10-hydroxy-camptothecin], the “activity relative to irinotecan” value is listed as 200 times.
